IC50 data for 9 compounds are collected here from ChEMBL document CHEMBL3085646, “Sulfur-containing cytotoxic curvularin macrolides from Penicillium sumatrense MA-92, a fungus obtained from the rhizosphere of the mangrove Lumnitzera racemosa” (J Nat Prod, 2013).

The structures appear in SMILES notation.

The test system of one experiment is SW1990. Kind of experiment: Cytotoxic activity against human SW1990 cells. It is filed as functional, cell-based.
Experiment [1] can be described thus: Cytotoxic activity against human SGC7901 cells. It is filed as functional, cell-based, SGC-7901.
The next experiment relates to MCF7. Kind of experiment: Cytotoxic activity against human MCF7 cells. It is filed as functional, cell-based.
The subject of a further experiment is Huh-7. Kind of experiment: Cytotoxic activity against human HuH7 cells. It is filed as functional, cell-based.
The next experiment relates to DU-145. The experiment in a line: Cytotoxic activity against human DU145 cells. Format: functional, cell-based.
In another experiment the test system is NCI-H460. The experiment in a line: Cytotoxic activity against human NCI-H460 cells. It is filed as functional, cell-based.
A further experiment deals with HeLa. The experiment in a line: Cytotoxic activity against human HeLa cells. It is filed as functional, cell-based.
Setting [2] is: Homo sapiens, SW1990, read-out: IC50.
Setting [3] is: Homo sapiens, SGC-7901, read-out: IC50.
Where [4] appears, read: Homo sapiens, MCF7, read-out: IC50.
Where [5] appears, read: Homo sapiens, Huh-7, read-out: IC50.
Where [6] appears, read: Homo sapiens, DU-145, read-out: IC50.
[7] abbreviates: Homo sapiens, NCI-H460, read-out: IC50.
Where [8] appears, read: Homo sapiens, HeLa, read-out: IC50.

For orientation: IC50 means the concentration that inhibits the measured activity by half. Turning to `CC(=O)OCCOC(=O)[C@@H](CS[C@H]1CCC[C@H](C)OC(=O)Cc2cc(O)cc(O)c2C(=O)C1)OC(C)=O`, the IC50 with SW1990 (setting [2]) is 11 µM; in experiment [1] (setting [3]), 6.8 µM; in the experiment on MCF7 (setting [4]) it was 4.7 µM; in the experiment on Huh-7 (setting [5]), 5.5 µM; with DU-145 (setting [6]), 7 µM; in the experiment on NCI-H460 (setting [7]), 4.6 µM. Further, the 50% inhibitory concentration (IC50) with HeLa (setting [8]) was 8 µM.
Regarding `Nc1ccn([C@@H]2O[C@H](CO)[C@@H](O)C2(F)F)c(=O)n1` [GEMCITABINE], the IC50 with SW1990 (setting [2]) is 1.6 µM.
`CC(=O)O[C@H]1C(=O)[C@@]2(C)[C@H]([C@H](OC(=O)c3ccccc3)[C@]3(O)C[C@H](OC(=O)[C@H](O)[C@@H](NC(=O)c4ccccc4)c4ccccc4)C(C)=C1C3(C)C)[C@]1(OC(C)=O)CO[C@@H]1C[C@@H]2O` [PACLITAXEL]: the IC50 in the experiment on HeLa (setting [8]) stood at 12 µM.
With `COc1cccc2c1C(=O)c1c(O)c3c(c(O)c1C2=O)C[C@@](O)(C(=O)CO)C[C@@H]3O[C@H]1C[C@H](N)[C@H](O)[C@H](C)O1` [DOXORUBICIN], the concentration for half-maximal inhibition (IC50) in experiment [1] (setting [3]) was determined as 0.011 µM.
Turning to `CC1CCCCCC(=O)c2c(O)cc(O)cc2CC(=O)O1` (centres undefined) [CURVULARIN], the IC50 entry (in the experiment on SW1990 (sw1990); in experiment [1] (sgc-7901); with MCF7 (mcf7); with Huh-7 (huh-7); in the experiment on DU-145 (du-145); in the experiment on NCI-H460 (nci-h460)) was “Not Active” each time. Moreover, the IC50 result in the experiment with HeLa (hela) is recorded as “Not Active”.
For the compound `O=c1[nH]cc(F)c(=O)[nH]1` [FLUOROURACIL], the IC50 in the experiment on DU-145 (setting [6]) worked out at 3.4 µM.
As for `C[C@H]1CCC[C@H](SC[C@@H](O)C(=O)O)CC(=O)c2c(O)cc(O)cc2CC(=O)O1`, the IC50 in the experiment on SW1990 (setting [2]) was 11 µM; in experiment [1] (setting [3]), 8.5 µM; in the experiment with MCF7 (setting [4]) it was 4.4 µM; in the experiment on Huh-7 (setting [5]), 5.1 µM; in the experiment on DU-145 (setting [6]), 6 µM; in the experiment with NCI-H460 (setting [7]), 7 µM. In addition, the IC50 in the experiment with HeLa (setting [8]) was determined as 6 µM.
On to `COC(=O)[C@H](O)CS[C@H]1CCC[C@H](C)OC(=O)Cc2cc(O)cc(O)c2C(=O)C1`, for which the IC50 in the experiment on SW1990 (setting [2]) was 10 µM; in experiment [1] (setting [3]), 5.5 µM; in the experiment on MCF7 (setting [4]), 4.4 µM; in the experiment with Huh-7 (setting [5]), 3.9 µM; with DU-145 (setting [6]) it was 6 µM; with NCI-H460 (setting [7]) it was 3.8 µM. The IC50 in the experiment on HeLa (setting [8]) amounted to 6 µM.
For `C[C@H]1CCC/C=C/C(=O)c2c(O)cc(O)cc2CC(=O)O1` [DEHYDROCURVULARIN], the half-maximal inhibitory concentration (IC50) in the experiment with SW1990 (setting [2]) was 10 µM; in experiment [1] (setting [3]) it was 6 µM; with MCF7 (setting [4]), 4 µM; in the experiment with Huh-7 (setting [5]), 5 µM; with DU-145 (setting [6]), 6 µM; with NCI-H460 (setting [7]), 5 µM. For the same compound, the IC50 with HeLa (setting [8]) turned out to be 6 µM.
